Measurements taken from patent US12653830B2, “Substituted imidazoquinoxaline compounds and uses thereof” (Impact Therapeutics (Shanghai), Inc, priority 2019, dated 2026).
Like-named read-outs stand apart in the source and are kept apart here.

Legend:
ATM kinase = target: T1, ATM kinase (Homo sapiens, UniProt Q13315); experiment: In vitro ATM kinase assay (Cisbio HTRF, p53 substrate); type: biochemical; details: 30 μM ATP; for inhibition at 0.0001 µM: Conc. 0.1 nM; for inhibition at 0.0001 µM / inhibition at 0.001 µM / inhibition at 0.01 µM: read-out: Inh % (inhibitory effect on ATM kinase activity); for inhibition at 0.001 µM: Conc. 1 nM; for inhibition at 0.01 µM: Conc. 10 nM
T1 construct: purchased Eurofins 14-933
T1 sequence (Q13315 whole entry): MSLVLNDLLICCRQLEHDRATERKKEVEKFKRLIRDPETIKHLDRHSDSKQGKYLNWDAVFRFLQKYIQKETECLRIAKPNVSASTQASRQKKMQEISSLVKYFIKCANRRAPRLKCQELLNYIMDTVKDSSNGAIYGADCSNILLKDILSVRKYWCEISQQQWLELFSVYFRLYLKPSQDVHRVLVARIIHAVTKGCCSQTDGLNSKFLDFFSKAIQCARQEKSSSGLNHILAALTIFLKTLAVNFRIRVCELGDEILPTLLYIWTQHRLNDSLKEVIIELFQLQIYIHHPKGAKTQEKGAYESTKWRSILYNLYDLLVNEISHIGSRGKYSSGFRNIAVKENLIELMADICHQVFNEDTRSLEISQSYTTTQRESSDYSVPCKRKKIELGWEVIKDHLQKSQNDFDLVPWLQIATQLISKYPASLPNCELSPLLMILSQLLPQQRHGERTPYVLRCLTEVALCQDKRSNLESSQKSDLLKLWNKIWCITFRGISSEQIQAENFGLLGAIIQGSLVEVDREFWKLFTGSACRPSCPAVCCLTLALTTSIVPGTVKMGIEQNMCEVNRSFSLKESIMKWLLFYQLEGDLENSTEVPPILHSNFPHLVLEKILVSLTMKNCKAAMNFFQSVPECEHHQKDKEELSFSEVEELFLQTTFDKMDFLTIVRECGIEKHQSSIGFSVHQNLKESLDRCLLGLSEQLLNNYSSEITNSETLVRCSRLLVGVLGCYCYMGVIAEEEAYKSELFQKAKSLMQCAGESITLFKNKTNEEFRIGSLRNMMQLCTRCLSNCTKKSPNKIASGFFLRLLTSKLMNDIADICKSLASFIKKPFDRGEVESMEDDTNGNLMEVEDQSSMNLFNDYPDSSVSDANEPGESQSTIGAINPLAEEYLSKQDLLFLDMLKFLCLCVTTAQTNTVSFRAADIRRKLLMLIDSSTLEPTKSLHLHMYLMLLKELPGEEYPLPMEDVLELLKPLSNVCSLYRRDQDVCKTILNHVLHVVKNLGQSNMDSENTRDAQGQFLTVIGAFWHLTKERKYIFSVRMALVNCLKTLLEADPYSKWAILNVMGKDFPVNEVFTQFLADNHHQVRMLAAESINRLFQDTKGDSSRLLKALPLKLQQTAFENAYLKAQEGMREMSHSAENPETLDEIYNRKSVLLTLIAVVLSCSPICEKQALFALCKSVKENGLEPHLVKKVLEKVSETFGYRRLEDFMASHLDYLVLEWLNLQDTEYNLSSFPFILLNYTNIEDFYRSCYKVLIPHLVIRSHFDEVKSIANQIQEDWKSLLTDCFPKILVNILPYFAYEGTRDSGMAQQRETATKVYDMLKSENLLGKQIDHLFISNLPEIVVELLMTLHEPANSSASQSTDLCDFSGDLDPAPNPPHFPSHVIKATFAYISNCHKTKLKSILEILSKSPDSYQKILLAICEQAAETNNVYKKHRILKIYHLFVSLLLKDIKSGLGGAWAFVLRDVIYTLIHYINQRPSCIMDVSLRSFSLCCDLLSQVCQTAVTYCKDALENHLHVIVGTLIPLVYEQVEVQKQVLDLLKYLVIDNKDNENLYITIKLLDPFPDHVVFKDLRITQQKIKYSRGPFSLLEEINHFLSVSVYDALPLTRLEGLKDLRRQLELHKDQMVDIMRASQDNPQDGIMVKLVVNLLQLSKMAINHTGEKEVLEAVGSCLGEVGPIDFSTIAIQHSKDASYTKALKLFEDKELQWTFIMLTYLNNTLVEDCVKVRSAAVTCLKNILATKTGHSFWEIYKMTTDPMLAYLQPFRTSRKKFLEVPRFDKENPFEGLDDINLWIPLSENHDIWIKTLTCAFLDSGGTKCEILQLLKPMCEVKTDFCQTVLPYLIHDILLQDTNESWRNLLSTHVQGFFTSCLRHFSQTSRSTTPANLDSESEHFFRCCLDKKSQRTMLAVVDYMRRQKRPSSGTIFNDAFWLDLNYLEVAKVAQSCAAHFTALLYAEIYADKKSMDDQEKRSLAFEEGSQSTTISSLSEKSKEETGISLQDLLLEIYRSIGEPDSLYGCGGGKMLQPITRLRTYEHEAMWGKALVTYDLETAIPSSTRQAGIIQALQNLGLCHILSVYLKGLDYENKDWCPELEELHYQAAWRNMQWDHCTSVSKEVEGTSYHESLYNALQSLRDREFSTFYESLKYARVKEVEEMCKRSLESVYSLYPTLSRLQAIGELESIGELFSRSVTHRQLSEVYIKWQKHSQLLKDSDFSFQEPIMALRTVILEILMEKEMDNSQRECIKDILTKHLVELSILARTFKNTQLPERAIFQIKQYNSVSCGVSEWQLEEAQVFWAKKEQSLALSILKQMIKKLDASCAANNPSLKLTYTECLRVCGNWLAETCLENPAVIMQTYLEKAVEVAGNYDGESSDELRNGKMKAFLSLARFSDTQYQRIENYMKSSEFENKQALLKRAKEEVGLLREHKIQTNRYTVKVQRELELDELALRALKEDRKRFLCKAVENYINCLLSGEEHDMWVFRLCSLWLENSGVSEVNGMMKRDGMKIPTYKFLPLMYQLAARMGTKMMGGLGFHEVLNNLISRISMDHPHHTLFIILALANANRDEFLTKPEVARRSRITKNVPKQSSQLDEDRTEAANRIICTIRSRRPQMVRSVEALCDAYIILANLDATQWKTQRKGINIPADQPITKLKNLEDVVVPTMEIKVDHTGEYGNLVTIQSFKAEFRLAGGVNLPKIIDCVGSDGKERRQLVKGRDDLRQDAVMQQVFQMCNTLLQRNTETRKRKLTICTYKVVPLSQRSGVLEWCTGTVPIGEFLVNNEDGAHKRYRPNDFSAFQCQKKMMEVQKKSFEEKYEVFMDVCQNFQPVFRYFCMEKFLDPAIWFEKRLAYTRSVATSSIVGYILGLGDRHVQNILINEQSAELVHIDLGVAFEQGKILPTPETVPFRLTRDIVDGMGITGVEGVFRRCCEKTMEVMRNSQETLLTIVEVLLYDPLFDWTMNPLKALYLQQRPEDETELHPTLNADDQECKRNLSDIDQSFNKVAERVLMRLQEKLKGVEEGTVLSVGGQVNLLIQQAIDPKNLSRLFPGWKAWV
Experimental: Determination of the Inhibitory Effect In Vitro of the Compound of Example 2 and its Analogues on ATM Using In Vitro ATM Kinase Assay
ATM enzymatic activity was measured using Cisbio's HTRF reagent in a 384-well plate (Greiner, #784075). […] The mixtures were centrifuged at 1000 rpm for 1 minute, and reacted in dark for 30 minutes at room temperature. Then, 5 μL of EDTA termination solution (250 mm) was added to terminate the reaction. After 5 μL of detection mixture (Anti-phospho-p53 (ser15)-K (Cisbio, #61P08KAE, 0.084 ng/μL) and Anti-GST-d2 (Cisbio, #61GSTDLA, 5.00 ng/μL)) was finally added to each well, the mixtures were cultured at room temperature over night, and the fluorescence values at 665 nm and 615 nm were measured on Envision 2104. The final concentration of each reagent of the experiment was as follows: 12.5 mM HEPES (pH8.0), 0.5% glycerol, 0.005% Brij-35, 0.625 mM DTT, 0.0125% BSA, 15 nM p53, 0.25 ng/μL ATM, 30 μM ATP, 2.5 mM Mg(AcO)2, 2.5 mM MnCl2, 62.5 mM EDTA, 0.021 ng/μL Anti-phospho-p53, 1.25 ng/μL Anti-GST-d2.
Relative fluorescence ratio was calculated: Ratio665 nm/615 nm−Ratiobackground, and inhibition rate %=(1−(relative fluorescence ratio of test compound well−relative fluorescence ratio of positive control well)/(relative fluorescence ratio of negative control well−relative fluorescence ratio of positive control well))×100 was calculated. Data were analyzed using GraphPad Prism6.0 and fitted using the curve equation: Y=Bottom+(Top−Bottom)/(1+10^((Log IC50−X)*HillSlope)), and IC50 values were calculated.

[1] = tested on: human colon cancer cell SW620; experiment: MTT proliferation assay in combination with CPT-11, SW620; type: cell-based; details: medium containing 205 nM CPT-11, 5 days, read-out: IC50, inhibition of proliferation of SW620 combined with CPT-11
Experimental: Determination of the Inhibitory Effect of the Compound of Example 2 and its Analogues in Combination with CPT-11 on the Proliferation of Human Colon Cancer Cell SW620 Using MTT Assay
The human colon cancer cells SW620 were cultured in RPMI 1640 medium with 10% FBS and used at about 90% confluence for experiments. The SW620 cells were digested with trypsinase and centrifuged at 800 rpm for 5 minutes. The supernatant was discarded and the cell pellets were resuspended with fresh medium (RPMI 1640+10% FBS). The cells were seeded into 96-well cell culture plates with appropriate cell density and incubated at 37° C. overnight in a 5% CO2 incubator. […] The first concentration was 1 μM or 0.333 μM, the last concentration was DMSO negative control (0 μM). 5 μL of solutions of each concentration was added to 120 μL of medium (a 25 times dilution) and mixed by shaking. The cells were cultured overnight and the culture medium was replaced with 195 μL/well of fresh medium containing 205 nM CPT-11 and 5 μL/well of medium containing the test compound (the final concentration of DMSO was 1%). The culture plates were returned to incubator and cultured at 37° C., 5% CO2 for 5 days. At the day of experiment, medium was discarded and replaced with 100 μL of fresh serum-free DMEM medium containing MTT (0.5 mg/mL), and the culture was continued. 4 hours later, the medium was discarded and replaced with 100 μL/well of DMSO, the plate was shaken for 10 minutes in dark and the absorbance was measured at the wavelengths of 552 and 690 nm using a multi-function plate reader. Data were analyzed by Graph Pad Prism 6.0. The inhibitory effects of compounds on cell proliferation were plotted based on cell viability vs. the logarithm of compound concentration. Cell viability %=(ODcompound−ODbackground)/(ODDMSO−ODbackground)×100.
Table 3 summarizes the inhibitory effect data (IC50) of some compounds combined with CPT-11 on the proliferation of human colon cancer cell SW620.

[2] = tested on: human breast cancer cell MDA-MB-468; experiment: MTT proliferation assay, MDA-MB-468; type: cell-based; details: Homo sapiens, MDA-MB-468, 168 h, 7 days, single agent, read-out: IC50, inhibition of proliferation of MDA-MB-468
Experimental: Determination of the Inhibitory Effect of the Compound of Example 2 and its Analogues on the Proliferation of Human Breast Cancer Cell MDA-MB-468 Using MTT Assay
The human breast cancer cells MDA-MB-468 were cultured in RPMI 1640 medium with 10% FBS and used at 90% confluence. The MDA-IVB-468 cells were digested with trypsinase and centrifuged at 800 rpm for 5 minutes. The supernatant was discarded and the cell pellets were resuspended with fresh medium and counted. Cells were seeded to 96-well cell culture plates with appropriate cell density and incubated overnight at 37° C., 5% CO2. […] 5 μL of solutions of each concentration was added to 120 μL of medium (diluted by 25 times) and mixed by shaking. The culture medium of cells cultured overnight was discarded and replaced with 195 μL/well of fresh medium (RPMI 1640+5% FBS) and 5 μL/well of diluted medium containing the test compound of corresponding concentrations (the final concentration of DMSO was 1%), and the culture plate was then returned to 5% CO2 incubator at 37° C. for 7 days (on the fourth day, dressing was changed once and culture was continued). On the day of experiment, culture medium was discarded and replaced with 100 μL/well of fresh serum-free DMEM medium containing MTT (0.5 mg/mL), and the culture was continued. After 4 hours, medium was discarded and replaced with 100 μL/well of DMSO, the plates were shaken for 10 minutes in darkness and the absorbance was measured at the wavelengths of 552 and 693 nm using a multi-function plate reader. Graph Pad Prism 6.0 was used to analyze the data. The inhibitory effects of compounds on cell proliferation were plotted based on cell viability vs. the logarithm of compound concentration. Cell viability %=(ODcompound−ODbackground)/(ODDMSO−ODbackground)×100.
Table 4 summarizes the inhibitory effect data (IC50) of some compounds on the proliferation of human breast cancer cell MDA-MB-468.

Compound	inhibition at 0.0001 µM (ATM kinase)	inhibition at 0.001 µM (ATM kinase)	inhibition at 0.01 µM (ATM kinase)	IC50 [1]	IC50 [2]	IC50 (ATM kinase)	IC50 ([1]; Homo sapiens, SW-620, 120 h)
Cc1nc(C(C)C)n2c1cnc1ccc(-c3ccc(N4CCC(N(C)C)CC4)c(Cl)c3)cc12 [Example 25, N,N-dimethyl-1-(2-chloro-4-(1-isopropyl-3-methylimidazo[1,5-a]quinoxalin-8-yl)phenyl)piperidin-4-amine]	–	69%	–	66.6 nM	73.3 nM	–	–
Cc1nc(C(C)C)n2c1cnc1ccc(-c3ccc(N4CCC(N(C)C)CC4)c(C(F)(F)F)c3)cc12 [Example 26, N,N-dimethyl-1-(4-(1-isopropyl-3-methylimidazo[1,5-a]quinoxalin-8-yl)-2-(trifluoromethyl)phenyl)piperidin-4-amine]	–	54%	–	51 nM	48.6 nM	–	–
Cc1nc(N2C[C@@H](C)O[C@@H](C)C2)n2c1cnc1ccc(-c3ccc(OCCCN4CCCCC4)nc3)cc12 [Example 33, (2S,6R)-2,6-dimethyl-4-(3-methyl-8-(6-(3-(piperidin-1-yl)propoxy)pyridin-3-yl)imidazo[1,5-a]quinoxalin-1-yl)morpholine]	28%	92%	100%	–	18.5 nM	0.2 nM	18.3 nM
Cc1nc(N2C[C@@H](C)O[C@@H](C)C2)n2c1cnc1ccc(-c3ccc(OCCN(C)C)nc3)cc12 [Example 36, 2-((5-(1-((2S,6R)-2,6-dimethylmorpholino)-3-methylimidazo[1,5-a]quinoxalin-8-yl)pyridin-2-yl)oxy)-N,N-dimethylethan-1-amine]	–	40%	–	72.6 nM	58.8 nM	–	–
Cc1nc(N2C[C@@H](C)O[C@@H](C)C2)n2c1cnc1ccc(-c3ccc(OCCCN(C)C)c(C(F)(F)F)c3)cc12 [Example 37]	12%	66%	100%	17.6 nM	24.9 nM	–	–
CCc1nc(N2C[C@@H](C)O[C@@H](C)C2)n2c1cnc1ccc(-c3ccc(OCCCN(C)C)nc3)cc12 [Example 41, 3-((5-(1-((2S,6R)-2,6-dimethylmorpholino)-3-ethylimidazo[1,5-a]quinoxalin-8-yl)pyridin-2-yl)oxy)-N,N-dimethylpropan-1-amine]	–	–	–	–	42.6 nM	0.15 nM	54.3 nM
C[C@@H]1CN(c2ncc3cnc4ccc(-c5ccc(OCCCN(C)C)nc5)cc4n23)C[C@H](C)O1 [Example 43, 3-((5-(1-((2S,6R)-2,6-dimethylmorpholino)imidazo[1,5-a]quinoxalin-8-yl)pyridin-2-yl)oxy)-N,N-dimethylpropan-1-amine]	–	–	–	–	16.7 nM	0.41 nM	17.9 nM
Cc1nc(N2C[C@@H](C)O[C@@H](C)C2)n2c1cnc1ccc(-c3ccc(NCCCN(C)C)nc3)cc12 [Example 46, N^1-(5-(1-((2S,6R)-2,6-dimethylmorpholino)-3-methylimidazo[1,5-a]quinoxalin-8-yl)pyridin-2-yl)-N^3,N^3-dimethylpropane-1,3-diamine]	–	–	–	–	40.2 nM	0.18 nM	46.9 nM

Compounds with a lower IC50 [2], results first:

inhibition at 0.0001 µM (ATM kinase)	inhibition at 0.001 µM (ATM kinase)	inhibition at 0.01 µM (ATM kinase)	IC50 [1]	IC50 [2]	IC50 (ATM kinase)	IC50 ([1]; Homo sapiens, SW-620, 120 h)	Compound
31%	94%	100%	16.3 nM	9.91 nM	–	–	Cc1nc(C(C)C)n2c1cnc1ccc(-c3ccc(OCCCN4CCCCC4)nc3)cc12 [Example 22, 1-isopropyl-3-methyl-8-(6-(3-(piperidin-1-yl)propoxy)pyridin-3yl)imidazo[1,5-a]quinoxaline]
30%	84%	98%	20.8 nM	11 nM	–	–	Cc1nc(C(C)C)n2c1cnc1ccc(-c3ccc(N4CCC(N(C)C)CC4)c(F)c3)cc12 [Example 24, N,N-dimethyl-1-(2-fluoro-4-(1-isopropyl-3-methylimidazo[1,5-a]quinoxalin-8-yl)phenyl)piperidin-4-amine]
–	–	–	–	9.2 nM	0.62 nM	10.1 nM	Cc1nc(N2C[C@@H](C)O[C@@H](C)C2)n2c1cnc1ccc(-c3ccc(OCCCN4CCC4)nc3)cc12 [Example 31, (2S,6R)-4-(8-(6-(3-(azetidin-1-yl)propoxy)pyridin-3-yl)-3-methylimidazo[1,5-a]quinoxalin-1-yl)-2,6-dimethylmorpholine]
–	–	–	–	7.6 nM	0.1 nM	9.2 nM	Cc1nc(N2C[C@@H](C)O[C@@H](C)C2)n2c1cnc1ccc(-c3ccc(OCCCN4CCCC4)nc3)cc12 [Example 32, (2S,6R)-2,6-dimethyl-4-(3-methyl-8-(6-(3-(pyrrolidin-1-yl)propoxy)pyridin-3-yl)imidazo[1,5-a]quinoxalin-1-yl)morpholine]
–	–	–	–	6.9 nM	0.2 nM	8.7 nM	Cc1nc(N2C[C@@H](C)O[C@@H](C)C2)n2c1cnc1ccc(-c3ccc(N4CCC(N(C)C)CC4)nc3)cc12 [Example 38, 1-(5-(1-((2S,6R)-2,6-dimethylmorpholino)-3-methylimidazo[1,5-a]quinoxalin-8-yl)pyridin-2-yl)-N,N-dimethylpiperidin-4-amine]
–	–	–	–	7.4 nM	0.2 nM	7.3 nM	Cc1nc(N2C[C@@H](C)O[C@@H](C)C2)n2c1cnc1ccc(-c3ccc(N4CCC(N(C)C)CC4)c(F)c3)cc12 [Example 39, 1-(4-(1-((2S,6R)-2,6-dimethylmorpholino)-3-methylimidazo[1,5-a]quinoxalin-8-yl)-2-fluorophenyl)-N,N-dimethylpiperidin-4-amine]
–	–	–	–	6.5 nM	0.2 nM	8.1 nM	Cc1nc(N2C[C@@H](C)O[C@@H](C)C2)n2c1cnc1ccc(-c3ccc(N4CCC(N(C)C)CC4)c(Cl)c3)cc12 [Example 40, 1-(2-chloro-4-(1-((2S,6R)-2,6-dimethylmorpholino)-3-methylimidazo[1,5-a]quinoxalin-8-yl)phenyl)-N,N-dimethylpiperidin-4-amine]
